Test results published in the supplement of paper PMC10307832.

How the values were obtained:
Experiment in all cases: relative viability (nuclei count vs DMSO), 5 days (fraction); higher = more cells survive
[1] = compound: CC1=C(C(=O)N2C=CSC2=N1)CCN3CCC(=C(C4=CC=CC=C4)C5=CC=C(C=C5)F)CC3 + CC1(C)CCC(c2ccc(Cl)cc2)=C(CN2CCN(c3ccc(C(=O)NS(=O)(=O)c4ccc(N[C@H](CCN5CCOCC5)CSc5ccccc5)c(S(=O)(=O)C(F)(F)F)c4)cc3)CC2)C1 [Navitoclax] (partner 0.5 µM)
Summary of the method: (§1)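 The day after seeding in 1536-well plates, lung cancer cell lines were treated by pin tool with a single drug, or with a fixed anchor-drug dose together with five library-drug doses (not always all listed) in √10 steps. After 5 days, a combined fix-and-stain solution (final 0.05% Triton X-100, 1% formaldehyde, 1 ug/ml Hoechst) was added. Nuclei counted on 4× images gave relative viability as treated counts over vehicle counts, reported as the median of duplicate plates.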

[2] = compound: CC1=C(C(=O)N2C=CSC2=N1)CCN3CCC(=C(C4=CC=CC=C4)C5=CC=C(C=C5)F)CC3 + C[C@@H](Oc1cc(-c2cnn(C3CCNCC3)c2)cnc1N)c1c(Cl)ccc(F)c1Cl [Crizotinib] (partner 1 µM)
Summary of the method: as §1

[3] = compound: CC1=C(C(=O)N2C=CSC2=N1)CCN3CCC(=C(C4=CC=CC=C4)C5=CC=C(C=C5)F)CC3 + Cc1cc(Nc2cc(N3CCN(C)CC3)nc(Sc3ccc(NC(=O)C4CC4)cc3)n2)n[nH]1 [Tozasertib] (partner 0.1 µM)
Summary of the method: as §1

[4] = compound: CC1=C(C(=O)N2C=CSC2=N1)CCN3CCC(=C(C4=CC=CC=C4)C5=CC=C(C=C5)F)CC3 + O=C(CCCCCCC(=O)Nc1ccccc1)NO [Vorinostat] (partner 1 µM)
Summary of the method: as §1

Cell Line	relative viability ([1]; first compound 0.08 µM)	relative viability ([1]; first compound 0.253 µM)	relative viability ([1]; first compound 0.8 µM)	relative viability ([1]; first compound 2.53 µM)	relative viability ([1]; first compound 8 µM)	relative viability ([2]; first compound 0.08 µM)	relative viability ([2]; first compound 0.253 µM)	relative viability ([2]; first compound 0.8 µM)	relative viability ([2]; first compound 2.53 µM)	relative viability ([2]; first compound 8 µM)	relative viability ([3]; first compound 0.08 µM)	relative viability ([3]; first compound 0.253 µM)	relative viability ([3]; first compound 0.8 µM)	relative viability ([3]; first compound 2.53 µM)	relative viability ([3]; first compound 8 µM)	relative viability ([4]; first compound 0.08 µM)	relative viability ([4]; first compound 0.253 µM)	relative viability ([4]; first compound 0.8 µM)	relative viability ([4]; first compound 2.53 µM)	relative viability ([4]; first compound 8 µM)
NCI-H2126	0.835	0.839	0.846	0.971	0.799	1.08	1.03	1.09	1.02	0.992	0.889	0.913	0.846	0.986	0.739	0.794	0.852	0.784	0.802	0.631
201T	1.19	1.16	1.21	1.22	1.23	1.02	1.03	1.01	1.05	1.08	0.976	1.02	0.952	0.973	0.739	1.07	0.93	1.02	1.01	0.595
NCI-H1755	0.932	1.02	1.1	1.02	0.56	0.927	0.87	0.907	0.997	0.722	0.553	0.614	0.604	0.547	0.421	0.704	0.71	0.789	0.759	0.571
NCI-H1355	0.976	0.984	0.996	1.09	0.787	1.12	1.16	1.04	1.17	0.712	0.623	0.544	0.52	0.496	0.532	0.588	0.602	0.6	0.611	0.529
LOU-NH91	0.625	0.663	0.758	0.698	0.604	0.701	0.747	0.715	0.772	0.726	0.7	0.6	0.688	0.701	0.605	0.973	0.832	0.856	0.948	0.776
NCI-H2085	1.12	1.1	1.21	1.1	0.908	0.692	0.986	0.921	0.861	0.649	0.896	0.735	0.747	0.844	0.702	0.85	0.827	0.758	0.807	0.707
EKVX	0.718	0.775	0.961	0.848	0.741	0.863	1.15	1.01	0.894	0.703	0.385	0.444	0.35	0.334	0.359	0.577	0.723	0.651	0.63	0.561
NCI-H1651	0.984	0.654	1.01	1.29	0.404	0.83	0.829	0.891	0.971	0.773	0.689	0.611	0.683	0.793	0.379	0.552	0.547	0.557	0.616	0.452
EPLC-272H	–	1.18	1.27	1.14	0.827	–	1.12	0.934	1.07	0.738	0.225	0.25	0.269	0.203	0.515	0.41	–	0.444	0.505	0.474
RERF-LC-KJ	0.933	0.769	0.806	1	0.681	0.789	0.851	0.775	0.835	0.795	0.432	0.462	0.518	0.426	0.452	0.617	0.658	0.793	0.716	0.48
NCI-H2347	0.313	0.739	0.89	0.663	0.552	0.692	0.801	0.675	0.508	0.684	0.439	0.554	0.525	0.471	0.487	0.538	0.603	0.573	0.579	0.453
NCI-H838	0.986	1.08	1.15	1.62	0.494	0.583	0.854	0.837	0.925	0.616	0.267	0.286	0.27	0.266	0.244	0.688	0.692	0.738	0.8	0.573
SW 1573	0.777	1.02	1.11	1.15	0.409	0.74	0.919	0.819	0.714	0.726	–	0.211	0.157	0.203	0.21	0.808	0.697	1.01	0.795	0.423
SK-MES-1	1.36	1.21	1.41	1.47	0.86	1.11	0.969	0.975	1.1	0.916	0.922	0.971	0.862	1.08	0.601	1.1	1.18	1.29	1.17	0.698
NCI-H2023	0.99	0.894	0.997	1.08	1.09	0.69	0.566	0.725	0.649	0.563	0.446	0.265	0.393	0.44	0.272	0.657	0.56	0.648	0.695	0.399
ChaGo-K-1	1.19	0.888	0.663	1.69	1.11	1.17	1.32	1.29	0.706	1.03	0.202	0.244	0.215	0.232	0.21	0.616	0.76	0.809	0.757	0.597
